Series [1] addresses T1, HERG channels (Homo sapiens, UniProt Q12809). In words: cell-based. As for the experimental part: (§1) Ionic conditions. Activation of channels formed only with HERG or containing both rMiRP1 and HERG subunits was assessed at various Ca^2+ concentrations by protocols 1 and 2. […] Initial characterizations were thus performed in a “low Ca^2+/high K^+” bath solution (in mM): 95 KCl, 5 NaCl, 1 MgCl2, 0.3 CaCl2 and 10 HEPES, pH 7.6 with NaOH. Other studies use solutions based on levels of ionized species found in human plasma (in mM): 4 KCl, 95 NaCl, 0.75 MgCl2, 1 CaCl2 and 10 HEPES, pH 7.6 with NaOH. For K^+ titrations in FIG. 4, NaCl and KCl were isotonically substituted. For cell-attached patches, pipette solution was (in mM): 100 KCl, 1 MgCl2, 0.3 CaCl2, 10 HEPES, pH 7.5 with KOH. For whole cell, pipettes contained (in mM): 100 KCl, 1 MgCl2, 10 HEPES, 2 EGTA, pH 7.5 with KOH.

The target of series [2] is wild type hMiRP1/HERG channels (Homo sapiens, UniProt Q12809). As to the kind of experiment: Drug blockade of wild type hMiRP1/HERG channels expressed in CHO cells. As for the experimental part: as §1
The target of series [3] is Q9E-hMiRP1 channels (Homo sapiens, UniProt Q12809). In words: Clarithromycin blockade of Q9E-hMiRP1/HERG channels in CHO cells. The following applies: for Ki: clarithromycin blockade. As for the experimental part:
Wild type hMiRP1/HERG channels and those formed with Q9E, M54T, I57T or T8A-hMiRP1 were compared by transient expression in CHO cells using 1 mM Ca^2+, 4 mM KCl solution.

In series [4] the target is T1, HERG channels. As to the kind of experiment: Ca2+ treated as blocking ion, HERG channels in oocytes, protocols 1 and 2. It is filed as cell-based. Set-up: expressed in transfected cells; host or cells: CHO cells. Particulars: −100 mV, read-out: apparent equilibrium inhibition constant (Ki). As for the experimental part:
(§2) Raw data are shown without leak correction. […] All experiments were performed at 22° C.

In series [5] the target is T2, heteromeric channels containing rMiRP1 (Homo sapiens, UniProt Q12809).
T2 construct: expressed in transfected cells; host or cells: Xenopus laevis oocytes, cRNA injection
In words: Ca2+ treated as blocking ion, rMiRP1/HERG channels in oocytes, protocols 1 and 2. It is filed as cell-based, rat. The following applies: rMiRP1/HERG vs HERG. As for the experimental part:
as §2

Series [6] concerns the target Native IKr channels. Particulars: ferret cardiac myocytes; Liu et al., 1996; read-out: Ki, E-4031, native IKr channels; cited from earlier work.

The structures appear in SMILES notation.

For orientation: IC50 means the concentration that gives 50% inhibition. Read a high IC50 as weaker potency.

`CC[C@H]1OC(=O)[C@H](C)[C@@H](O[C@H]2C[C@@](C)(OC)[C@@H](O)[C@H](C)O2)[C@H](C)[C@@H](O[C@@H]2O[C@H](C)C[C@H](N(C)C)[C@H]2O)[C@](C)(OC)C[C@@H](C)C(=O)[C@H](C)[C@@H](O)[C@]1(C)O` [clarithromycin]: the IC50 in series [1] is 750 ± 310 µM; in series [2], 720 ± 180 µM. The Ki in series [2] came out at 590 ± 100 µM; in series [3] (CHO cells, 1 mM Ca2+, 4 mM KCl) it was 240 ± 40 µM; in series [3] (bath K+ reduced to 1 mM, n=6 cells), 200 ± 70 µM. Further, the “shift of V1/2 to more positive potentials” value in series [2] (human, pH 7.6) is on record as 10 mV; in series [3], 10 mV. Further, the “sensitivity to the drug relative to wild type channels” value in series [3] was determined as 3 fold.
For the compound `[Ca+2]` [Ca^2+], in series [4], the Ki worked out at 290 ± 20 µM. The “apparent Ki relative to HERG channels, fold lower” value in series [5] is recorded as about 3 fold.
As for `Cc1cccc(CCN2CCC(C(=O)c3ccc(NS(C)(=O)=O)cc3)CC2)n1` [E-4031], in series [6], the Ki was 0.0103 µM.
